Data published in ChEMBL document CHEMBL3779780, “Chroman-4-one and chromone based somatostatin β-turn mimetics” (Eur J Med Chem, 2016).

Legend:
[1] = target: T1, Somatostatin receptor type 2 (Homo sapiens, UniProt P30874); assay: Displacement of [125I]tyr11-SRIF from human sst2 receptor after 60 mins by liquid scintillation counting method
[2] = target: T2, Somatostatin receptor type 4 (Homo sapiens, UniProt P31391); assay: Displacement of [125I]tyr11-SRIF from human sst4 receptor after 60 mins by liquid scintillation counting method
[3] = target: T2, Somatostatin receptor type 4; assay: Displacement of [125I]-SRIF14 from human sst4 receptor
[4] = target: T2, Somatostatin receptor type 4; assay: Binding affinity to human sst4 receptor
[5] = target: T1, Somatostatin receptor type 2; assay: Binding affinity to human sst2 receptor

T1 sequence (P30874 whole entry): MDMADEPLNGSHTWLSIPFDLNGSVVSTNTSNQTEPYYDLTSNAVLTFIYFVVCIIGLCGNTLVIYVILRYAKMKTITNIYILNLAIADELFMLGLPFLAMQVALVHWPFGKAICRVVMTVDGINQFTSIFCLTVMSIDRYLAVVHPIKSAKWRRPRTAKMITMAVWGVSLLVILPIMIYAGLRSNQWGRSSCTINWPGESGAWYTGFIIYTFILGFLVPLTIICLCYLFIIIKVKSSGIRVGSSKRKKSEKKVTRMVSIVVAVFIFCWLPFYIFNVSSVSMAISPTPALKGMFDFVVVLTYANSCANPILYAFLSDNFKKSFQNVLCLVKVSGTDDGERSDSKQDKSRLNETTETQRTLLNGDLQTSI
T2 sequence (P31391 whole entry): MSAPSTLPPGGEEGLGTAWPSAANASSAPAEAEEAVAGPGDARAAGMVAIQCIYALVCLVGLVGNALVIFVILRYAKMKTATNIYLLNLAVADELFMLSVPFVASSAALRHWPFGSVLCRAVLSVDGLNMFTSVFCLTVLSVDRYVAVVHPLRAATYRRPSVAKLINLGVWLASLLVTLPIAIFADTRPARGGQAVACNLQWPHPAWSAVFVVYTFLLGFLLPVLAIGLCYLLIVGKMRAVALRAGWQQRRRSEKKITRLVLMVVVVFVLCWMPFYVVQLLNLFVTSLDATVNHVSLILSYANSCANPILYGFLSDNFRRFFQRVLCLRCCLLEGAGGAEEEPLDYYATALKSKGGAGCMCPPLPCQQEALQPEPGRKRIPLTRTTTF

Row | Ki [1] | Ki [2] | Ki [3] | Ki [4] | Ki [5] | SMILES
1 | 2660 nM | 1170 nM |  |  |  | NCCCc1cc(Cl)cc2c(=O)cc(CCc3cccc4ccccc34)oc12
2 | 6850 nM | 7090 nM |  |  |  | NCCCc1cc(Cl)cc2c1OC(CCc1cccc3ccccc13)CC2=O (racemic)
3 |  |  | 2050 nM |  |  | CC(C)CC[C@]1(Cc2ccccc2)NC=C([C@@]2(Cc3ccccc3)NC=C([C@]3(CCCN)NC=C([C@@]4(CC(C)C)NC=C(Cc5ccccc5)C4=O)C3=O)C2=O)C1=O
4 |  |  |  | 2020 nM | 4690 nM | NCCCCCOc1ccccc1OCCc1c[nH]c2ccccc12
